Key:
[1] = system: total white blood cell (WBC); assay: Total white blood cells by complete blood count on day 8, dosing day 1, 3, 5; type: in vivo, Swiss-Webster mice; conditions: mice, oral gavage, measured on day 8
[2] = system: total white blood cell (WBC); assay: as above; type: in vivo, Swiss-Webster mice; conditions: Mus musculus, 192 h, mice, oral gavage, measured on day 8, read-out: Total WBC % Increase Over Control; for change in vivo at 20 mg/kg: 20 mg/kg on day 1, day 3 and day 5; for change in vivo at 100 mg/kg: 100 mg/kg on day 1, day 3 and day 5; for change in vivo at 200 mg/kg: 200 mg/kg on day 1, day 3 and day 5
Experimental: To examine the effect of compounds and methods of the present invention on increasing white blood cells, the following studies were performed. In one series of experiments, male Swiss-Webster mice were administered various compounds of the present invention via oral gavage using a ball-tipped gavage needle. […] Animals were dosed once daily for 3 or 4 days. Six hours after the final dosing, 200 μl blood samples were collected and total white blood cell, neutrophil, and lymphocyte levels were measured by complete blood count (CBC) using a CellDyn cell analyzer (Abbott Laboratories).
In another series of experiments, male Swiss-Webster mice were administered various compounds (see Table 7 and Table 8) of the present invention via oral gavage using a ball-tipped gavage needle. […] Total WBC, neutrophil, lymphocyte, and monocyte levels were measured in mice as described above on day 8 following administration of compound on day 1, day 3, and day 5.

[3] = 20 mg/kg on day 1, day 3 and day 5
[4] = 100 mg/kg on day 1, day 3 and day 5
[5] = 200 mg/kg on day 1, day 3 and day 5
[6] = 60 mg/kg on day 1, day 3 and day 5

In the case of `N#Cc1nc(C(=O)NCC(=O)O)c(O)c2cc(Oc3ccccc3)ccc12` [Compound AG, [(1-Cyano-4-hydroxy-6-phenoxy-isoquinoline-3-carbonyl)-amino]-acetic acid], the “Total WBC” value [1, 3] is reported as 7.6 10^3 cells/μl and the change in vivo at 20 mg/kg [2] is reported as 25%.

`CC(C)CCn1cc(Cl)c2c(O)c(C(=O)NCC(=O)O)nc(C#N)c21` [Compound AO, {[3-Chloro-7-cyano-4-hydroxy-1-(3-methyl-butyl)-1H-pyrrolo[2,3-c]pyridine-5-carbonyl]-amino}-acetic acid] was tested, and the “Total WBC” value [1, 4] was 10.5 10^3 cells/μl and the change in vivo at 100 mg/kg [2] was 47%.

In the case of `COc1ccc(Cn2c(Cl)c(Cl)c3c(O)c(C(=O)NCC(=O)O)nc(C#N)c32)cc1` [Compound AK, {[2,3-Dichloro-7-cyano-4-hydroxy-1-(4-methoxy-benzyl)-1H-pyrrolo[2,3-c]pyridine-5-carbonyl]-amino}-acetic acid], the “Total WBC” value [1, 5] is reported as 16.8 10^3 cells/μl and the change in vivo at 200 mg/kg [2] is reported as 105%.

In the case of `COc1ccc(Cn2cc(Br)c3c(O)c(C(=O)NCC(=O)O)nc(C#N)c32)cc1` [Compound AJ, {[3-Bromo-7-cyano-4-hydroxy-1-(4-methoxy-benzyl)-1H-pyrrolo[2,3-c]pyridine-5-carbonyl]-amino}-acetic acid], the “Total WBC” value [1, 5] is reported as 21.5 10^3 cells/μl and the change in vivo at 200 mg/kg [2] is reported as 237%.

In the case of `N#Cc1nc(C(=O)NCC(=O)O)c(O)c2sccc12` [Compound AA, [(4-Cyano-7-hydroxy-thieno[3,2-c]pyridine-6-carbonyl)-amino]-acetic acid], the change in vivo at 2 mg/kg ([1]; Mus musculus, 192 h, 2 mg/kg on day 1, day 3 and day 5, read-out: Total WBC % Increase Over Control) is reported as 20% and the “Total WBC” value ([1]; 2 mg/kg on day 1, day 3 and day 5) is reported as 7.1 10^3 cells/μl.

With `N#Cc1nc(C(=O)NCC(=O)O)c(O)c2c(Cl)cn(Cc3ccccc3F)c12` [Compound AN, {[3-Chloro-7-cyano-1-(2-fluoro-benzyl)-4-hydroxy-1H-pyrrolo[2,3-c]pyridine-5-carbonyl]-amino}-acetic acid] the “Total WBC” value [1, 5] was 23.2 10^3 cells/μl and the change in vivo at 200 mg/kg [2] was 179%.

`COc1ccc(Cn2cc(Cl)c3c(O)c(C(=O)NCC(=O)O)nc(C#N)c32)cc1` [Compound AM, {[3-Chloro-7-cyano-4-hydroxy-1-(4-methoxy-benzyl)-1H-pyrrolo[2,3-c]pyridine-5-carbonyl]-amino}-acetic acid] was tested, and the “Total WBC” value [1, 5] was 23.3 10^3 cells/μl and the change in vivo at 200 mg/kg [2] was 264%.

With `CC(C)Oc1ccc(Cn2c(Cl)c(Cl)c3c(O)c(C(=O)NCC(=O)O)nc(C#N)c32)cc1` [Compound AX, {[2,3-Dichloro-7-cyano-4-hydroxy-1-(4-isopropoxy-benzyl)-1H-pyrrolo[2,3-c]pyridine-5-carbonyl]-amino}-acetic acid] the “Total WBC” value [1, 4] was 12.8 10^3 cells/μl and the change in vivo at 100 mg/kg [2] was 81%.

For `CC(C)Oc1ccc(Cn2cc(Cl)c3c(O)c(C(=O)NCC(=O)O)nc(C#N)c32)cc1` [Compound BC, {[3-Chloro-7-cyano-4-hydroxy-1-(4-isopropoxy-benzyl)-1H-pyrrolo[2,3-c]pyridine-5-carbonyl]-amino}-acetic acid], the “Total WBC” value [1, 4] was 15.9 10^3 cells/μl and the change in vivo at 100 mg/kg [2] was 148%.

For `CC(C)Oc1ccc(CN2C=CC3C(O)=C(C(=O)NCC(=O)O)N=C(C#N)C32)cc1` (stereo not drawn) [Compound AZ, {[7-Cyano-4-hydroxy-1-(4-isopropoxy-benzyl)-3a,7a-dihydro-1H-pyrrolo[2,3-c]pyridine-5-carbonyl]-amino}-acetic acid], the “Total WBC” value [1, 6] was 11.6 10^3 cells/μl and the change in vivo at 60 mg/kg [2, 6] was 79%.

With `N#Cc1nc(C(=O)NCC(=O)O)c(O)c2c(Cl)c(Cl)n(Cc3ccc4ccccc4c3)c12` [Compound AP, [(2,3-Dichloro-7-cyano-4-hydroxy-1-naphthalen-2-ylmethyl-1H-pyrrolo[2,3-c]pyridine-5-carbonyl)-amino]-acetic acid] the “Total WBC” value [1, 4] was 10.8 10^3 cells/μl and the change in vivo at 100 mg/kg [2] was 88%.

With `N#Cc1nc(C(=O)NCC(=O)O)c(O)c2ccn(Cc3ccccc3)c12` [Compound AR, [(1-Benzyl-7-cyano-4-hydroxy-1H-pyrrolo[2,3-c]pyridine-5-carbonyl)-amino]-acetic acid] the “Total WBC” value [1, 4] was 9.5 10^3 cells/μl and the change in vivo at 100 mg/kg [2] was 71%.

`O=C(O)CNC(=O)c1ncc2cc(Oc3ccc(F)c(Cl)c3)ccc2c1O` [Compound W, {[7-(3-Chloro-4-fluoro-phenoxy)-4-hydroxy-isoquinoline-3-carbonyl]-amino}-acetic acid] was tested, and the “Total WBC” value [1, 5] was 8.4 10^3 cells/μl and the change in vivo at 200 mg/kg [2] was 80%.

With `N#Cc1nc(C(=O)NCC(=O)O)c(O)c2c(Cl)c(Cl)n(Cc3ccc(-c4ccccc4)cc3)c12` [Compound AV, [(1-Biphenyl-4-ylmethyl-2,3-dichloro-7-cyano-4-hydroxy-1H-pyrrolo[2,3-c]pyridine-5-carbonyl)-amino]-acetic acid] the “Total WBC” value [1, 4] was 15.2 10^3 cells/μl and the change in vivo at 100 mg/kg [2] was 137%.

`O=C(O)CNC(=O)c1ncc2cc(Oc3ccc(F)cc3)ccc2c1O` [Compound U, {[7-(4-Fluoro-phenoxy)-4-hydroxy-isoquinoline-3-carbonyl]-amino}-acetic acid] was tested, and the change in vivo at 6 mg/kg ([1]; Mus musculus, 192 h, 6 mg/kg on day 1, day 3 and day 5, read-out: Total WBC % Increase Over Control) was 6% and the “Total WBC” value ([1]; 6 mg/kg on day 1, day 3 and day 5) was 8.3 10^3 cells/μl.

In the case of `N#Cc1nc(C(=O)NCC(=O)O)c(O)c2c(Oc3cccc(Cl)c3)cccc12` [Compound BB, {[5-(3-Chloro-phenoxy)-1-cyano-4-hydroxy-isoquinoline-3-carbonyl]-amino}-acetic acid], the “Total WBC” value [1, 5] is reported as 20.1 10^3 cells/μl and the change in vivo at 200 mg/kg [2] is reported as 227%.

`N#Cc1nc(C(=O)NCC(=O)O)c(O)c2c(Oc3ccccc3)cccc12` [Compound AH, [(1-Cyano-4-hydroxy-5-phenoxy-isoquinoline-3-carbonyl)-amino]-acetic acid] was tested, and the “Total WBC” value [1, 5] was 9.4 10^3 cells/μl and the change in vivo at 200 mg/kg [2] was 123%.

With `N#Cc1nc(C(=O)NCC(=O)O)c(O)c2cccc(Oc3ccc(F)cc3)c12` [Compound AF, {[1-Cyano-8-(4-fluoro-phenoxy)-4-hydroxy-isoquinoline-3-carbonyl]-amino}-acetic acid] the “Total WBC” value [1, 5] was 8.2 10^3 cells/μl and the change in vivo at 200 mg/kg [2] was 35%.

With `N#Cc1nc(C(=O)NCC(=O)O)c(O)c2cccc(Oc3ccccc3)c12` [Compound AD, [(1-Cyano-4-hydroxy-8-phenoxy-isoquinoline-3-carbonyl)-amino]-acetic acid] the “Total WBC” value [1, 5] was 7.6 10^3 cells/μl and the change in vivo at 200 mg/kg [2] was 10%.

For `N#Cc1nc(C(=O)NCC(=O)O)c(O)c2cc(C(F)(F)F)n(Cc3ccccc3F)c12` [Compound AQ, {[7-Cyano-1-(2-fluoro-benzyl)-4-hydroxy-2-trifluoromethyl-1H-pyrrolo[2,3-c]pyridine-5-carbonyl]-amino}-acetic acid], the “Total WBC” value [1, 3] was 9.6 10^3 cells/μl and the change in vivo at 20 mg/kg [2] was 56%.

In the case of `CC(C)Oc1ccc(Cn2c(Cl)c(Cl)c3c(O)c(C(=O)N[C@@H](C)C(=O)O)nc(C#N)c32)cc1` [Compound BD, (S)-2-{[2,3-Dichloro-7-cyano-4-hydroxy-1-(4-isopropoxy-benzyl)-1H-pyrrolo[2,3-c]pyridine-5-carbonyl]-amino}-propionic acid], the “Total WBC” value [1, 5] is reported as 14.1 10^3 cells/μl and the change in vivo at 200 mg/kg [2] is reported as 93%.
